Assay results from patent US8609660B2, “4,7-dihydro-pyrazolo[1,5-a]pyrazin-6-ylamine derivatives useful as inhibitors of beta-secretase (BACE)” (Janssen Pharmaceutica NV, priority 2010, dated 2013).

Legend:
[1] = target: T1, recombinant BACE1 protein (Homo sapiens, UniProt P56817); assay: Biochemical FRET based assay; settings: recombinant BACE1 1 μg/ml, 120 min, room temperature, pH 5.0; for IC50: read-out: Biochemical FRET based assay pIC50 (converted)
T1 construct: recombinant BACE1 protein in a final concentration of 1 μg/ml
From the text: Biochemical FRET Based Assay This assay is a Fluorescence Resonance Energy Transfer Assay (FRET) based assay. The substrate for this assay is an APP derived 13 amino acids peptide that contains the 'Swedish' […] mutation of the amyloid precursor protein (APP) β-secretase cleavage site. […] Upon cleavage by BACE1, the fluorophore Mca is separated from the quenching group Dnp, restoring the full fluorescence yield of the donor. The increase in fluorescence is linearly related to the rate of proteolysis (Koike H et al. J Biochem. 1999, 126, 235-42). Briefly in a 384-well format recombinant BACE1 protein in a final concentration of 1 μg/ml is incubated for 120 minutes at room temperature with 10 μm substrate in incubation buffer (40 mM Citrate buffer pH 5.0, 0.04% PEG, 4% DMSO) in the absence or presence of compound. Next the amount of proteolysis is directly measured by fluorescence measurement at T=0 and T=120 (excitation at 320 nm and emission at 405 nm). […] [formula]

[2] = tested on: Aβ42 produced and secreted into the medium of human neuroblastoma SKNBE2 cells; assay: Cellular αlisa assay in SKNBE2 cells, Aβ42; assay type: cell-based; settings: SKNBE2 cells expressing hAPP695, 18 hours incubation; for IC50: Homo sapiens, SKNBE2, 18 h, read-out: Cellular αlisa assay in SKNBE2 cells Aβ42 pIC50 (converted)
Description: (§1) Cellular αlisa Assay in SKNBE2 Cells In two αlisa assays the levels of Aβtotal and Aβ42 produced and secreted into the medium of human neuroblastoma SKNBE2 cells are quantified. The assay is based on the human neuroblastoma SKNBE2 expressing the wild type Amyloid Precursor Protein (hAPP695). […] Aβtotal and Aβ42 are measured by sandwich α[…] sandwich assay using biotinylated antibody AbN/25 attached to streptavidin coated beads and antibody Ab4G8 or cAb42/26 conjugated acceptor beads for the detection of Aβtotal and Aβ42 respectively. In the presence of Aβtotal or Aβ42, the beads come into close proximity. The excitation of the Donor beads provokes the release of singlet oxygen molecules that triggers a cascade of energy transfer in the Acceptor beads, resulting in light emission. Light emission is measured after 1 hour incubation (excitation at […] and emission at 615 nm). A best-fit curve is fitted by a minimum sum of squares method to the plot of % Controlmin versus compound concentration. […] [formula]

[3] = tested on: Aβtotal produced and secreted into the medium of human neuroblastoma SKNBE2 cells; assay: Cellular αlisa assay in SKNBE2 cells, Aβtotal; assay type: cell-based; settings: SKNBE2 cells expressing hAPP695, 18 hours incubation; for IC50: Homo sapiens, SKNBE2, 18 h, read-out: Cellular αlisa assay in SKNBE2 cells Aβtotal pIC50 (converted)
Description: as §1

T1 sequence (P56817 46-501): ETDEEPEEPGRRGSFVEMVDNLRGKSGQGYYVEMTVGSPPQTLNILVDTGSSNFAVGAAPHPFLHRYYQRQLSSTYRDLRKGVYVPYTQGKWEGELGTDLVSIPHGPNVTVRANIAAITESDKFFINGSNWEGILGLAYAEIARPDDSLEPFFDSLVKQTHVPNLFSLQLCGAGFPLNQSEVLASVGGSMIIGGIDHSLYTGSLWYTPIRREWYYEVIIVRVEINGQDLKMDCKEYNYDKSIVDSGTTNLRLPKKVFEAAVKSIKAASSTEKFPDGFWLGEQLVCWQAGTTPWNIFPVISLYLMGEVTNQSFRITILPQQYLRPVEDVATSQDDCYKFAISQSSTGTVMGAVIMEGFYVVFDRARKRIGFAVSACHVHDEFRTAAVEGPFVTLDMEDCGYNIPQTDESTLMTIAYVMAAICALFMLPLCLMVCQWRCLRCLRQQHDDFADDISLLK

Structure (SMILES) | IC50 [1] | IC50 [2] | IC50 [3] | Biochemical FRET based assay pIC50 [1] | Cellular αlisa assay in SKNBE2 cells Aβ42 pIC50 [2] | Cellular αlisa assay in SKNBE2 cells Aβtotal pIC50 [3]
CC1(c2cccc(-c3cncnc3)c2)N=C(N)Cn2nccc21 (racemic) [Compound 1, rac-4-methyl-4-(3-pyrimidin-5-ylphenyl)-4,7-dihydropyrazolo[1,5-a]pyrazin-6-amine] | 3310 nM | 457 nM | 355 nM | – | – | –
CC1(c2cccc(NC(=O)c3ccc(Cl)cn3)c2)N=C(N)Cn2nccc21 (racemic) [Compound 3, rac-N-[3-(6-amino-4-methyl-4,7-dihydropyrazolo[1,5-a]pyrazin-4-yl)-phenyl]-5-chloropyridine-2-carboxamide] | – | 10.7 nM | 11.7 nM | – | – | –
COc1cncc(-c2cc(C3(C)N=C(N)Cn4nccc43)c(F)cc2F)c1 (racemic) [Compound 5] | – | – | – | 5.49 | 6.4 | 6.41
COc1cccc(-c2cc(C3(C)N=C(N)Cn4nccc43)c(F)cc2F)c1 (racemic) [Compound 6] | – | – | – | 5.53 | 6.06 | 6.13
CC1(c2cc(-c3ccccc3)c(F)cc2F)N=C(N)Cn2nccc21 (racemic) [Compound 12] | – | – | – | 4.88 | 5.58 | 5.67
CC1(c2cc(NC(=O)c3ccc(Cl)cn3)ccc2F)N=C(N)Cn2nccc21 (racemic) [Compound 13] | – | – | – | 6.84 | 7.72 | 7.73
CC1(c2cc(-c3cc(Cl)cc(Cl)c3)ccc2F)N=C(N)Cn2nccc21 (racemic) [Compound 15] | – | – | – | 5.68 | 5.48 | 5.52
CC1(c2cc(-c3cncnc3)ccc2F)N=C(N)Cn2nccc21 (racemic) [Compound 16] | – | – | – | 4.98 | 5.53 | 5.48
CC1(c2cc(-c3cccc(C#N)c3)c(F)cc2F)N=C(N)Cn2nccc21 (racemic) [Compound 18] | – | – | – | 4.75 | 5.76 | 5.67
COc1cnc(C(=O)Nc2ccc(F)c(C3(C)N=C(N)Cn4nc(C(F)(F)F)cc43)c2)cn1 (racemic) [Compound 30] | – | – | – | 6.68 | 6.8 | 6.78
COc1cncc(-c2cccc(C3(C)N=C(N)Cn4nc(C(F)(F)F)cc43)c2)c1 (single isomer, unassigned) [Compound 22, (R*)-4-[3-(5-methoxypyridin-3-yl)-phenyl]-4-methyl-2-(trifluoromethyl)-4,7-dihydropyrazolo[1,5-a]pyrazin-6-amine] | 603 nM | – | – | – | 6.13 | 6.18
COc1cncc(-c2cccc(C3(C)N=C(N)Cn4nc(C(F)(F)F)cc43)c2)c1 (single isomer, unassigned) [Compound 23, (S*)-4-[3-(5-methoxypyridin-3-yl)-phenyl]-4-methyl-2-(trifluoromethyl)-4,7-dihydropyrazolo[1,5-a]pyrazin-6-amine] | > 30200 nM | – | – | – | <5 | <5
CC1(c2cc(-c3cncc(Cl)c3)ccc2F)N=C(N)Cn2nc(C(F)(F)F)cc21 (single isomer, unassigned) [Compound 25, (R*)-4-[5-(5-chloropyridin-3-yl)-2-fluorophenyl]-4-methyl-2-(trifluoromethyl)-4,7-dihydropyrazolo[1,5-a]pyrazin-6-amine] | 3630 nM | – | – | – | 5.5 | 5.64
CC1(c2cc(-c3cncc(Cl)c3)ccc2F)N=C(N)Cn2nc(C(F)(F)F)cc21 (single isomer, unassigned) [Compound 26, (S*)-4-[5-(5-chloropyridin-3-yl)-2-fluorophenyl]-4-methyl-2-(trifluoromethyl)-4,7-dihydropyrazolo[1,5-a]pyrazin-6-amine] | > 30200 nM | – | – | – | <5 | <5
CC1(c2cc(NC(=O)c3ncc(Cl)cc3Cl)ccc2F)N=C(N)Cn2nc(C(F)(F)F)cc21 (single isomer, unassigned) [Compound 28, (R*)—N-{3-[6-amino-4-methyl-2-(trifluoromethyl)-4,7-dihydropyrazolo[1,5-a]pyrazin-4-yl]-4-fluorophenyl}-3,5-dichloropyridine-2-carboxamide] | 91.2 nM | – | – | – | 6.99 | 7.1
CC1(c2cc(NC(=O)c3ncc(Cl)cc3Cl)ccc2F)N=C(N)Cn2nc(C(F)(F)F)cc21 (single isomer, unassigned) [Compound 29, (S*)—N-{3-[6-amino-4-methyl-2-(trifluoromethyl)-4,7-dihydropyrazolo[1,5-a]pyrazin-4-yl]-4-fluorophenyl}-3,5-dichloropyridine-2-carboxamide] | 15500 nM | – | – | – | <5 | <5
COc1cnc(C(=O)Nc2ccc(F)c(C3(C)N=C(N)Cn4nc(C(F)(F)F)cc43)c2)cn1 (single isomer, unassigned) [Compound 31] | – | – | – | 6.73 | 6.92 | 6.99
COc1cnc(C(=O)Nc2ccc(F)c(C3(C)N=C(N)Cn4nc(C(F)(F)F)cc43)c2)cn1 (single isomer, unassigned) [Compound 32] | – | – | – | <4.52 | 6.56 | 6.54
CC1(c2cccc(-c3cncnc3)c2)N=C(N)Cn2nccc21 (stereo not shown) [Compound 8] | – | – | – | 5.65 | 6.61 | 6.54
COc1cncc(-c2cccc(C3(C)N=C(N)Cn4nccc43)c2)c1 (stereo not shown) [Compound 9] | – | – | – | 6.05 | 6.93 | 6.94
CC1(c2cccc(-c3cc(F)cc(F)c3)c2)N=C(N)Cn2nccc21 (stereo not shown) [Compound 14] | – | – | – | 6.11 | 6.09 | 6.11
CC1(c2cccc(NC(=O)c3ccc(Cl)cn3)c2)N=C(N)Cn2nccc21 (stereo not shown) [Compound 17] | – | – | – | – | 8.09 | 8.08
CC1(c2cccc(-c3cccc(OC(F)(F)F)c3)c2)N=C(N)Cn2nccc21 (stereo not shown) [Compound 19] | – | – | – | 5.77 | 5.81 | 5.91
COc1cncc(-c2cccc(C3(C)N=C(N)Cn4nc(C(F)(F)F)cc43)c2)c1 (stereo not drawn) [Compound 21, rac-4-[3-(5-methoxypyridin-3-yl)-phenyl]-4-methyl-2-(trifluoromethyl)-4,7-dihydropyrazolo[1,5-a]pyrazin-6-amine] | 1070 nM | 407 nM | 398 nM | – | – | –
